Test results as given in patent US12692232B2, “Indole carboxamide compound, preparation therefor and use thereof” (NANJING RUISHUNING MEDICAL TECHNOLOGY CO., LTD., priority 2021, dated 2026).

Assays:
Assay type in all cases: in vivo
[1] = tested on: H22 liver subcutaneous transplanted tumor; experiment: Mouse model of H22 liver subcutaneous transplanted tumor; conditions: 20 mg/kg injected intraperitoneally 14 days (positive drug)
Procedure: (§1) The method was as follows:
Experimental procedure: H22 hepatoma cell suspension was adjusted to 1×10^7/mL after dilution and counting with normal saline, and 0.2 mL per mouse was inoculated on the back of the mice. After 24 hours, the mice were weighed and administered drug at a dose of 0.1 mL/10 g once a day, wherein the mice in the solvent control group and the treatment groups were administered 0.9% sodium chloride solution and the compound of the present invention, respectively, for 14 days, and the mice in the CTX group were injected intraperitoneally for 14 days. The mice were weighed after 14 days. The animals were executed and the tumor blocks were removed and weighed separately. The tumor inhibition rate was calculated according to the following formula: tumor inhibition rate (%)=(1−average tumor weight in a treatment group/average tumor weight in the solvent control group)×100%.

[2] = tested on: mouse model of focal segmental glomerulosclerosis; experiment: Mouse model of focal segmental glomerulosclerosis (adriamycin)
Procedure: as §1
Each mouse in the model group, the treatment groups and the positive control group was injected once into the tail vein with adriamycin at a dose of 8 mg/kg, and each mouse in the control group was injected once into the tail vein with saline at the same dose. The mice in the control group and model group were administered equal amount of saline by gavage for 6 weeks, and the mice in other group were administered corresponding compound in doses by gavage at a fixed time each day for 6 weeks after modelling with adriamycin. The body weights were recorded weekly and urine samples were collected.
Collection of urine samples: animals were placed in separate metabolic cages by group on days 0, 7, 14, 21, 28, 35, and 42 after modelling, with free access to water and no access to food, and urine samples were collected from each group of mice.
Determination of urine protein level using Coomassie brilliant blue (CBB) method: urine protein level was determined by urine protein quantitative test kit (Nanjing Jiancheng Bioengineering Institute). CBB working solution was prepared according to the kit instructions. 0.05 mL of each urine sample was mixed with 3 mL of CBB working solution, the mixture was allowed to stand for 5 min, and the absorbance value of each sample was determined at 595 nm. The urine protein levels samples of each group was calculated according to the protein standardization formula: urine protein level (mg/L)=(measured OD−blank OD)/(standard OD−blank OD)×563 mg/L.
Collection of serum samples: orbital blood from each mouse was collected in an EP tube, placed at 37° C. for 20 minutes, and centrifuged to obtain an upper layer of serum.
Collection of plasma samples: orbital blood from each mouse was collected in an anticoagulation tube, mixed well and stored at 4° C. for later use.
Determination of urea nitrogen level in plasma by diacetyl monoxime method: urea nitrogen level was determined by using blood urea nitrogen (BUN) test kit (Nanjing Jiancheng Bioengineering Institute). According to the kit instructions, 0.05 mL of anticoagulated plasma sample was mixed with 1 mL of oxime solution and 1 mL of acid working solution, and the mixtures were placed in a boiling water bath for 15 minutes. A UV-visible spectrophotometer was used to determine the absorbance values of each tube at a wavelength of 520 nm. Urea nitrogen levels in plasma samples of each group were calculated according to the formula: Urea nitrogen level (mmol/L)=(measured OD value−blank OD value)/(standard OD value−blank OD value)×10 mmol/L.
Collection of kidney tissue samples: kidneys were taken from mice after anesthesia, cut horizontally, and the upper part of the kidneys was embedded in OCT embedding box, sliced with frozen slicer and stored at −20° C.
H&E staining was used to assess pathological glomerular changes, and the procedure was as follows: frozen sections were fixed with 95% ethanol for 2 minutes, hydrated with distilled water, stained with hematoxylin for 3 minutes, washed with distilled water for 3 minutes, differentiated using 1% hydrochloric acid in ethanol for 10 seconds, washed with distilled water for 30 seconds, returned to blue in running water for 5 minutes, washed in distilled water for 30 seconds, stained with eosin for 30 seconds, washed with 75% and 85% ethanol for 20 seconds each, dehydrated rapidly with 95% ethanol for 1 minute, dehydrated with anhydrous ethanol, cleared to transparency in xylene (1 minute×3), and finally sealed with neutral balsam and photographed with a biomicroscope.

[3] = tested on: mouse model of renal fibrosis (UUO); experiment: Mouse model of renal fibrosis (unilateral ureteral obstruction, UUO)
Procedure: The therapeutic effect of the compounds of the present invention (as exemplified by Compound 1-1 obtained in Example 1) on renal fibrosis was determined using a mouse model of renal fibrosis. The method was as follows:
Grouping of animals: male C57BL/6J mice aged 8 weeks were given adaptive feeding for 3 days and grouped into a sham operation group, a sham operation-treatment group, a Unilateral ureteral obstruction (UUO) model group, a low-dose (10 mg/kg) treatment group, a medium-dose (25 mg/kg) treatment group, a high-dose (50 mg/kg) treatment group, a medium-dose (25 mg/kg) treatment group of indole analogue 3-[(1-methyl-1H-indole-2-carbonyl)amino]propionic acid disclosed in CN2019107285315, and a positive control group of losartan (50 mg/kg), with 10 animals in each group. Mice in the model and the treatment groups were anesthetized by intraperitoneal injection of 0.5% sodium pentobarbital at a dose of 0.1 mL/10 g. The mice were fixed on the operating table and cut open in layers from the right side of the mid-abdomen to locate the left kidney, and the ends of the ureter were ligated, while the ureter was cut off between the two ligations; the sham operation group was operated as described above and the ligations were not performed. Post-operative organs were repositioned, sutured, and sterilized with iodophor after suturing was completed. Immediately after operation, the drug was administered by gavage once daily for 14 days. Urine sample collection: animals were placed in separate metabolic cages by group on days 0, 5, 10 and 14 after modelling, without food or water, and urine samples were collected from each group of mice.
The protein levels in urine were determined using Coomassie brilliant blue (CBB) method by using urine protein quantitative test kit (Nanjing Jiancheng Bioengineering Institute). CBB working solution was prepared according to the kit instructions. 0.05 mL of each urine sample was mixed with 3 mL of CBB working solution, the mixture was left to stand for 5 min, and the absorbance value of each sample was determined at 595 nm. The protein levels in each group of urine samples were calculated according to the protein standardization formula: urine protein levels (mg/L)=(measured OD−blank OD)/(standard OD−blank OD)×563 mg/L.
Collection of serum sample: orbital blood from each mouse was collected in an EP tube, placed at 37° C. for 20 minutes, and centrifuged to obtain the upper layer of serum.
Collection of plasma sample: orbital blood from each mouse was collected in an anticoagulation tube, mixed well and stored at 4° C. for later use.
Determination of creatinine levels in urine and serum by the picric acid colorimetric method: creatinine levels in urine and serum were determined by using the creatinine test kit (Nanjing Jiancheng Bioengineering Institute). According to the kit instructions, 1.5 mL of urine sample or serum sample and 0.5 mL of picric acid solution, 0.5 mL of 0.5 mol/L sodium hydroxide solution were mixed, heated in water bath at 37° C. for 10 minutes. The absorbance value of each sample was determined using a UV spectrophotometer at a wavelength of 510 nm. Creatinine levels in samples of each group were calculated according to the formula: creatinine level (μmol/L) in serum or urine=(measured OD value−blank OD value)/(standard OD value−blank OD value)×50 μmol/L×(dilution ratio 201).
Determination of urea nitrogen level in plasma by diacetyl monoxime method: urea nitrogen level was determined was determined by using blood urea nitrogen (BUN) test kit (Nanjing Jiancheng Bioengineering Institute). According to the kit instructions, 0.05 mL of anticoagulated plasma samples were mixed with 1 mL of oxime solution and 1 mL of acid working solution, and the mixtures were placed in a boiling water bath for 15 min. A UV-visible spectrophotometer was used to determine the absorbance values of each tube at a wavelength of 520 nm. […]

[4] = tested on: rat model of pulmonary hypertension induced by monocrotaline; experiment: Rat model of pulmonary hypertension induced by monocrotaline
Procedure: The preventive effect of the compounds of the present invention (as exemplified by compound 1-1 obtained in Example 1) on pulmonary hypertension was determined using a rat model of pulmonary hypertension induced by monocrotaline. The method was as follows:
Grouping of animals: 70 male SD rats with weigh of 200±20 g were randomly divided into 7 groups, i.e., a normal control group, a monocrotaline (MCT) model group, a treatment group of low-dose compound 1-1 (10 mg/kg) (MCT), a treatment group of medium-dose compound 1-1 (25 mg/kg) (MCT), a treatment group of high-dose compound 1-1 (50 mg/kg) (MCT), a treatment group of medium-dose indole analogue 3-[(1-methyl-1H-indole-2-carbonyl)amino]propionic acid (25 mg/kg) disclosed in CN2019107285315 (MCT), and a sildenafil group (150 mg/kg) (MCT), with 10 rats in each group.
Experimental procedure: MCT was prepared as a 2% solution with a mixture of ethanol and saline (2:8) and the solution was injected intraperitoneally once at a dose of 60 mg/kg body weight in all groups except the normal control group. Each rat in the normal control group was injected intraperitoneally once with a solution prepared from ethanol and saline in a volume ratio of 2:8. Compound 1-1 obtained in Example 1, the indole analogue 3-[(1-methyl-1H-indole-2-carbonyl)amino]propionic acid disclosed in CN2019107285315, or the positive drug sildenafil was administered by gavage to the mice in the treatment groups on the day of modelling, and saline was administered by gavage to the mice in the normal control group and the MCT model group. The drugs were administered by gavage once a day for 28 days until 12 hours before test.
Determination of hemodynamic indexes: a polyethylene plastic microcatheter filled with heparin solution (0.9% sodium chloride solution+10 U/mL heparin) was inserted into the right external jugular vein of a rat, and the other end of the microcatheter was connected to a miniature pressure transducer to monitor the pressure changes. […] After 30 minutes of stabilization, the POWERLAB multi-channel intelligent physiological signal acquisition and recording system was applied to acquire, record and analyze the indexes.
Determination of the index of right ventricular (RV) hypertrophy: at the end of the experiment, the heart was removed by dissection of the thorax and the atrial tissue was cut off. The right ventricle (RV), left ventricle (LV), and interventricular septum (S) were isolated along the edge of the interventricular septum, and the RV, LV, and S were weighed after absorbing water with filter paper and the ratio RV/(LV+S) was used to reflect the degree of RV hypertrophy.
Pathological examination of pulmonary vessels: tissue blocks were taken from the same site in the lower lobe of the right lung and fixed in 10% neutral formaldehyde (pH=7.4) for 2 days. Routine paraffin embedding, serial sections, H&E staining and light microscopy were performed to observe morphological changes in small pulmonary arteries.
Effect on inflammatory factors in lung tissue: Lung tissues were collected from each group of rats, homogenates of lung tissue were prepared and centrifuged and supernatants were collected. The protein level in the supernatant was determined by Coomassie brilliant blue method, and tumor necrosis factor-α (TNF-α) in rats was determined by an ELISA kit (Beijing 4A Biotech Co., Ltd.). […]

[5] = gavage once daily 14 days, not statistically different (P>0.05)
[6] = MCT + sildenafil (150 mg/kg) gavage 28 days

Question: `O=P1(N(CCCl)CCCl)NCCCO1` (stereo not drawn) [CTX, cyclophosphamide, reference compound] was tested. Which tumor inhibition rate [1] did it give?
Answer: 60.3%

Question: How did the “serum urea nitrogen level reduced compared with the model group” value ([2]; 50 mg/kg gavage, 6 weeks) turn out when `CCCCC1=NC2(CCCC2)C(=O)N1Cc1ccc(-c2ccccc2-c2nnn[nH]2)cc1` [irbesartan, reference compound] was run?
Answer: 9.0%

Question: What about the “serum urea nitrogen level” value ([2]; 50 mg/kg gavage, 6 weeks, model 16.08±0.23) of the same compound?
Answer: 14.63 ± 0.19 mmol/L

Question: And the urine protein level ([2]; 50 mg/kg gavage, 6 weeks, model 547.0±106.3)?
Answer: 382 ± 80.8 mg/L

Question: And the “glomerular lesions, renal tissue pathology (H&E, PAS, Sirius red stain)” value ([2]; FIG. 1, control compound 25 mg/kg, irbesartan 50 mg/kg)?
Answer: shows the same effect

Question: And the “body weight compared with the FSGS group” value ([2]; gavage daily 6 weeks, compound 1-1 10, 25, 50 mg/kg, control compound 25 mg/kg, irbesartan 50 mg/kg)?
Answer: increased body weights

Question: `CCCCc1nc(Cl)c(CO)n1Cc1ccc(-c2ccccc2-c2nn[nH]n2)cc1` [losartan, reference compound] was tested. Which “creatinine level reduced compared with the model group” value ([3]; 50 mg/kg gavage 14 days) did it give?
Answer: 19.0%

Question: And the “urea nitrogen level reduced compared with the model group” value ([3]; 50 mg/kg gavage 14 days)?
Answer: 29.7%

Question: And the “urine protein level reduced compared with the model group” value ([3]; 50 mg/kg gavage 14 days)?
Answer: 46.6%

Question: What about the urea nitrogen level ([3]; 50 mg/kg gavage 14 days, model 17.56±0.48) of the same compound?
Answer: 12.35 ± 0.37 mmol/L

Question: What about the serum creatinine level ([3]; 50 mg/kg gavage 14 days, model 32.48±0.87) of the same compound?
Answer: 26.32 ± 1.12 µmol/L

Question: And the urine protein level ([3]; 50 mg/kg gavage 14 days, model 888.5±264.8)?
Answer: 475 ± 112 mg/L

Question: What about the “extent of renal fibrosis, pathological staining (H&E, Masson, Sirius red)” value ([3]; FIG. 2, control compound 25 mg/kg, losartan 50 mg/kg) of the same compound?
Answer: shows the same effect

Question: And the “body weight compared with the UUO model group” value [3, 5]?
Answer: slight increase in body weight

Question: What about the “kidney weight compared with the UUO model group” value [3, 5] of the same compound?
Answer: slight decrease in kidney weight

Question: Which “RV/(LV + S)” value [4, 6] does the source give for `CCCc1nn(C)c2c(=O)[nH]c(-c3cc(S(=O)(=O)N4CCN(C)CC4)ccc3OCC)nc12` [sildenafil, reference compound] here?
Answer: 0.32 ± 0.02

Question: What about the “TNF-α in lung tissue” value [4, 6] of the same compound?
Answer: 0.600 ± 06 g/g protein

Question: What about the mPAP ([4]; MCT + sildenafil (150 mg/kg) gavage once a day 28 days) of the same compound?
Answer: 23.6 ± 3.4 mmHg
